According to paper PMC8261488, “Contraceptive progestins with androgenic properties stimulate breast epithelial cell proliferation” (EMBO Molecular Medicine, 2021):
Where “and” joins values, the source holds several entries; their conditions need not be identical. Equal entries are not always repeated.

Assays:
Rankl [1] = assay: Rankl transcript levels by RT-PCR in mouse mammary organoids stimulated ex vivo; format: cell-based; conditions: for Rankl transcript levels over vehicle-treated control: BalbC females, 6 h of stimulation
Procedure: (§1) Next, we stimulated mouse mammary organoids derived from several BalbC females with R5020 or different progestins (Fig 1A). […] No significant change in Rankl and Wnt4 transcript levels was detected during the first 2 h (Appendix Fig S1D). By 6 h of R5020 stimulation, Rankl and Wnt4 transcript levels increased 22.4 and 5.8‐fold over the vehicle‐treated control, respectively.
(§2) Animal experiments were performed in accordance with protocol approved by the Service de la Consommation et des Affaires vétérinaires of Canton de Vaud (VD 1865.3, VD 1865.4). NOD. Cg‐Prkdc^scid Il2rg^tm1Wjl/SzJ mice (Charles River), BalbC, and C57Bl6 breeders were purchased from Jackson Laboratories. Mammary glands were isolated from 18‐ to 35‐week‐old mice, lymph nodes removed, minced with surgical blades, and digested in DMEM/F12, 1% penicillin/streptomycin B with collagenase A 0.25 mg/ml (Roche). […] Fat was removed, and pellet containing organoids washed with phosphate‐buffered saline (PBS), resuspended 5 min in 3 ml red cell blood lysis buffer and washed twice with PBS.
(§3) Human breast microstructures and mouse organoids were homogenized in Trizol (Invitrogen). Aqueous phase containing RNA was chloroform extracted and processed with miRNeasy extraction kit (Qiagen). cDNA was synthesized using random p(dN)6 primers (Roche) and MMLV reverse transcriptase (Invitrogen). SYBR Green PCR Core Reagent System (Qiagen) was used for semi‐quantitative real time (RT‐PCR) using the following primers.

Wnt4 [2] = assay: Wnt4 transcript levels by RT-PCR in mouse mammary organoids stimulated ex vivo; format: cell-based; conditions: for Wnt4 transcript levels over vehicle-treated control: BalbC females, 6 h of stimulation
Procedure: as §1, §2, §3

[3] = tested on: endogenous hormone levels in mice; assay: Endogenous steroid hormone plasma levels in treated host mice by LC-MS; format: in vivo, mouse; conditions: xenografted NSG females with pellets
Text: Next, we assessed whether progesterone and progestins differentially affected endogenous hormone levels in mice. Plasma 17‐β‐estradiol levels were not affected by any of the treatments (Fig 4H). […] Plasma testosterone levels were not altered by any treatment with the exception of DSP, which decreased them (Fig 4H). Thus, prolonged exposures to progestins differentially affect endogenous progesterone plasma levels and DSP decreases testosterone plasma levels in host mice.

KLK3 = KLK3 mRNA in xenografted HBECs by RT-PCR with human-specific primers; format: in vivo; conditions: 21 days pellets (Fig 5M)
Text: Consistent with AR and PR sharing a common hormone response element (Claessens et al, 1996), KLK3 was induced upon progestin stimulation. […] This is in agreement with previous findings that KLK3 expression is under the control of both androgens and progestins in T47D cells (Zarghami et al, 1997).
(§4) Next, we sought for a readout of in vivo cell proliferation different from radiance. […] Given that MKI67 expression could replace the luciferase measurements as a readout, we used a modified experimental setup for a second round of experiments. We derived HBECs from viably frozen mammoplasty samples (Appendix Table S3) and engrafted them to different mammary glands of NSG females without viral infection. Four months later, the 24 recipient females, each engrafted with 5 different mammoplasties received pellets containing either vehicle, progesterone, or 1 of 6 progestins for 21 days. At sacrifice, xenografted glands were histologically sectioned and cell proliferation was quantified using co‐IF with anti‐MKI67 and anti‐hECAD antibodies. For one of the mammoplasties, we were able to obtain measurements for all experimental conditions (Fig 5I). […] For the remaining mammoplasties, between 3 and 8 different experimental conditions were successfully quantified (Appendix Table S4). […] CPA (P < 0.0001) decreased proliferation, whereas CMA and DSP had no effect (Fig 5K). As AR signaling increases AR protein levels, we performed co‐IF for AR and hECAD as another means to assess AR signaling activity.
as §3

HBECs [4] = assay: MKI67/Ki67 expression in xenografted HBECs; format: in vivo, human; conditions: 21 days pellets; for cell proliferation (KI67 and hECAD double+ cells), overall analysis: HBECs from 11 different patients; for cell proliferation (KI67 and hECAD double+ cells): one mammoplasty (M310)
Text: as §4
Tissues were fixed for 2 h at room temperature in 4% paraformaldehyde and paraffin‐embedded. Dewaxed and rehydrated paraffin sections were pretreated in 10 mM Na citrate (pH 6.0) at 95° for 20 min. Blocking was performed with 1% BSA for 60 min. Primary antibodies used were as follows: Ki67 (rabbit α‐Ki67, clone Sp6, Spring Amsbio, dilution 1:200), ER (rabbit α‐ER, clone Sp1, Zytomed RTU), PR (rabbit α‐PR, clone 1E2, Ventana RTU), AR (rabbit α‐AR, clone SP107, Thermo Fisher, diluted 1:200), CK7 (rabbit α‐CK7, clone Sp52, Abcam, diluted 1:500), CK19 (mouse KS19.2 (Z105.6), American Research Products Inc. (diluted 1:50), and mouse α‐ECAD (clone G‐10, sc‐8426, diluted 1:100). For IHC, chromogenic revelation was performed with ChromoMap DAB kit (Roche Diagnostics, Switzerland) and sections were counterstained with Mayer’s hematoxylin. For fluorescence microscopy, nuclei were counterstained with DAPI (Sigma). IHC for ER, PR, and AR was performed on Discovery Ventana ULTRA (44). IHC images were acquired on Leica DM 2000 with Leica DFC450 C camera. IF images were acquired on Zeiss LSM700 confocal microscope. Slides were scanned with Olympus VS120‐L100 slide scanner with 20×/0.75 objective and Pike F505 C Color camera. Images were loaded into QuPath using the BioFormats extension (Bankhead et al, 2017).

human breast epithelium = conditions: female, mouse, in vivo, 8 months
Procedure: All the engrafted glands were processed for histological analysis and H&E stained.
(§7) Mice were anesthetized by intraperitoneal injection with 10 mg/kg xylazine and 90 mg/kg ketamine (Graeub) and injected intraductally with 10 μl cell suspension per gland. Bioluminescence imaging was performed as described (Sflomos et al, 2016). After 3–10 weeks, when bioluminescence from individual glands reached 10^7 total flux (p/s/cm2/sr), animals were assigned to different treatment groups and hormone pellets implanted subcutaneously. Enzalutamide (Selleckchem, Catalog No. S1250) dissolved in 15% DMSO in PEG300 was injected intraperitoneally 3 times/week at 30 mg/kg.

AR = tested on: AR; set-up: method as in earlier work; conditions: various assays, ref Fuhrmann et al, 1995, Muhn et al, Bouchard, 2005, Mishell, 2008, Schneider et al, 2009, Africander et al, 2011, Louw‐du Toit et al, 2017; cited from earlier work
HBECs [5] = assay: In vivo growth of intraductal HBEC xenografts measured by radiance; conditions: 60 days of treatment, subcutaneous pellets
Text: To compare the effects of progesterone and different progestins on HBECs in vivo, we infected single cell suspensions obtained from fresh reduction mammoplasty specimens with GFP‐luciferase2‐expressing lentiviruses. The infected cell mixture was grafted intraductally to up to 5 glands of as many recipients as possible. The engraftment and growth of the xenografted cells were monitored weekly by in vivo imaging. When radiance reached > 10E07 on average per mammary gland, 60‐day‐release pellets were implanted subcutaneously, usually within 3–10 weeks after cell injection. At sacrifice, blood was collected and plasma levels of the administered compounds as well as endogenous steroid hormones were determined by liquid chromatography‐mass spectrometry (LC‐MS) (Laszlo et al, 2019).
Next, the in vivo growth of HBEC xenografts stimulated with progesterone or different progestins was analyzed. […] In addition, the fold change radiance of treated versus untreated samples at endpoint was calculated (Fig 5A–C).
as §7
Pellets were prepared by mixing the required amount of part A, MP3745/E81949 and part B, MP3744/E81950 of low consistency silicon elastomer (MED‐4011) and hormone powder to homogeneity. Mix was transferred to a syringe and incubated at 37°C overnight. The silicon‐hormone mass was removed from the syringe and cut to pieces, as described (Duss et al, 2007). The original protocol was adapted for different doses as described below.

Rankl [6] = assay: Rankl induction by R5020 or LNG in mouse mammary organoids co-treated with AR antagonists; format: cell-based; conditions: 6 h
Procedure: (§5) Enzalutamide (100 µM) abrogated Rankl induction by R5020 (P < 0.05) but had no effect on Wnt4 induction (Fig 1H).
(§6) Animal experiments were performed in accordance with protocol approved by the Service de la Consommation et des Affaires vétérinaires of Canton de Vaud (VD 1865.3, VD 1865.4). NOD. Cg‐Prkdc^scid Il2rg^tm1Wjl/SzJ mice (Charles River), BalbC, and C57Bl6 breeders were purchased from Jackson Laboratories. Mammary glands were isolated from 18‐ to 35‐week‐old mice, lymph nodes removed, minced with surgical blades, and digested in DMEM/F12, 1% penicillin/streptomycin B with collagenase A 0.25 mg/ml (Roche). Tissue was concomitantly stimulated with hormones for 1, 2, or 6 h and centrifuged at 652 g for 5 min. Fat was removed, and pellet containing organoids washed with phosphate‐buffered saline (PBS), resuspended 5 min in 3 ml red cell blood lysis buffer and washed twice with PBS.
as §3

Wnt4 [7] = assay: Wnt4 induction by R5020 or LNG in mouse mammary organoids co-treated with AR antagonists; format: cell-based; conditions: antagonist 100 µM, 6 h, C57Bl6-derived organoids
Procedure: as §5, §6, §3

HBECs [8] = assay: In vivo growth of HBEC xenografts treated with LNG with or without enzalutamide; set-up: species or system human; conditions: enzalutamide 30 mg/kg intraperitoneally 3 times/week, the 2 LNG-responsive PDXs
Procedure: Mice were anesthetized by intraperitoneal injection with 10 mg/kg xylazine and 90 mg/kg ketamine (Graeub) and injected intraductally with 10 μl cell suspension per gland. […] After 3–10 weeks, when bioluminescence from individual glands reached 10^7 total flux (p/s/cm2/sr), animals were assigned to different treatment groups and hormone pellets implanted subcutaneously. Enzalutamide (Selleckchem, Catalog No. S1250) dissolved in 15% DMSO in PEG300 was injected intraperitoneally 3 times/week at 30 mg/kg.

[9] = BalbC-derived organoids, 24 h of stimulation
[10] = antagonist 100 µM, C57Bl6-derived organoids

Structure (SMILES) | Rankl transcript levels over vehicle-treated control (Rankl [1]) [fold] | Rankl transcript induction (Rankl [1]; [9]) [fold] | Rankl transcript induction (Rankl [1]; C57Bl/6 mice, 6 h, 20 nM) [fold] | Wnt4 transcript levels over vehicle-treated control (Wnt4 [2]) [fold] | Wnt4 transcript induction (Wnt4 [2]; [9]) [fold] | Wnt4 transcript induction (Wnt4 [2]; C57Bl/6 mice, 6 h, 20 nM) [fold] | endogenous progesterone plasma levels (estrous cycle-related variation) [3] | KLK3 transcripts levels (KLK3) | cell proliferation (KI67 and hECAD double+ cells), overall analysis (HBECs [4]) | cell proliferation (KI67 and hECAD double+ cells) (HBECs [4]) | morphologic changes in xenografts (H&E) (human breast epithelium) | androgenic / anti-androgenic activity (AR) | growth (course of radiance) of engrafted HBECs versus control (HBECs [5]) | relative radiance at endpoint over control (FC) (HBECs [5]) | effect of AR antagonist on Rankl induction (Rankl [6]; antagonist 10 µM, n = 3) | effect of AR antagonist on Rankl induction by LNG (Rankl [6]; [10]) | effect of AR antagonist on Rankl induction by R5020 (Rankl [6]; [10]) | effect of AR antagonist on Wnt4 induction by LNG (Wnt4 [7]) | effect of AR antagonist on Wnt4 induction by R5020 (Wnt4 [7]) | effect of enzalutamide on LNG-induced proliferation (HBECs [8])
C#C[C@]1(O)CC[C@H]2[C@@H]3CCC4=CC(=O)CC[C@@H]4[C@H]3C(=C)C[C@@]21CC [DSG, 3‐ketodesogestrel] | 22.3 | 177.2 | 15.5 | 8.5 | 32.2 | 4.2 | suppressed | increased | increased | significantly increased | 3 or 4 grafts showed diffuse and in some cases marked acinar proliferation | androgenic activity | increased growth | 2 fold and 2.0 fold | – | – | – | – | – | –
C#C[C@]1(O)C=C[C@H]2[C@@H]3CCC4=CC(=O)CC[C@@H]4[C@H]3CC[C@@]21CC [GSN, gestodene] | 18.2 | 617.2 | 21.5 | 4.9 | 33.5 | 3.6 | suppressed | increased | increased | significantly increased | 3 or 4 grafts showed diffuse and in some cases marked acinar proliferation | androgenic activity | increased growth | 2.2 fold | – | – | – | – | – | –
CNC(=O)c1ccc(N2C(=S)N(c3ccc(C#N)c(C(F)(F)F)c3)C(=O)C2(C)C)cc1F [enzalutamide] | – | – | – | – | – | – | – | – | – | – | – | – | – | – | failed to reach significance | significantly reduced | abrogated | not affected | no effect | decreased the proliferative effects of LNG
